Assay results as given in US8278464B2, “Insecticides” (Syngenta Crop Protection LLC, priority 2006, dated 2012).

Experiments:
[1] = system: Plutella xylostella (Diamond Back Moth); test: Activity against Plutella xylostella, artificial diet MTP (Example B3); type: in vivo; conditions: 120 h, L2 larvae, incubation 5 days
Description: (§1) 24-well microtiter plate (MTP) with artificial diet is treated with test solutions by pipetting. After drying, the MTP's are infested with larvae (L2) (10-15 per well). After an incubation period of 5 days, samples are checked for larval mortality, antifeedant and growth regulation. In this test, compounds listed in the Tables above show good activity. In particular compounds T13.1.2, T15.1.1, T15.1.91, T13.1.1, T9.1.2 (diastereomer A), T9.1.2 (diastereomer B), T16.1.1, T17.1.2 (diastereomer A), T17.1.2 (diastereomer B), T16.1.91, T13.1.92, T13.1.361, T13.1.391, T13.1.91, T13.1.6, T13.1.96, T44.1.2, T13.1.8, T13.1.23, T13.1.93, T13.1.113, T13.1.21, T13.1.111 have an activity of over 80% at 400 ppm.

[2] = system: Myzus persicae (Green Peach Aphid); test: Activity against Myzus persicae, systemic, pea seedlings (Example B6); type: in vivo; conditions: 144 h, 6 days after introduction
Excerpt: Roots of pea seedlings, infested with an aphid population of mixed ages, are placed directly in the test solutions. 6 days after introduction, samples are checked for mortality and special effects on the plant.

[3] = system: Diabrotica balteata (Corn Root Worm); test: Activity against Diabrotica balteata, artificial diet MTP (Example B4); type: in vivo; conditions: 120 h, L2 larvae, incubation 5 days
Description: as §1, with “(6-10” for “(10-15”, “B),” for “B), T16.1.1,”, “T13.1.92,” for “T13.1.92, T13.1.361, T13.1.391,”, “T13.1.23,” for “T13.1.23, T13.1.93,”

[4] = system: Heliothis virescens (Tobacco Budworm); test: Activity against Heliothis virescens, eggs on artificial diet (Example B2); type: in vivo; conditions: 96 h, eggs 0-24 h old, incubation 4 days
Description: Eggs (0-24 h old) are placed in 24-well microtiter plate on artificial diet and treated with test solutions by pipetting. After an incubation period of 4 days, samples are checked for egg mortality, larval mortality, and growth regulation.

[5] = system: Spodoptera littoralis (Cotton Leafworm); test: Systemic insecticide test for Spodoptera littoralis, maize seedlings, 12.5 ppm (Example B9); type: in vivo; conditions: 96 h, 12.5 ppm in water, systemic via maize seedlings, larvae incubated four days
Description: Four day old maize seedlings (Zea mais, variety Stoneville) are placed individual in vials containing 24 ml water into which the chemical is diluted at 12.5 ppm. Seedlings are allowed to grow for six days. Subsequently leaves are cut and placed in a Petri dish (5 cm diameter), inoculated with twelve to fifteen 1st instar S. littoralis larvae and incubated for four days in a growth chamber (25° C., 50% r.h., 18:6 L:D photo period). Number of alive insects are counted and percentage of dead calculated. Tests were conducted with one replicate.

[6] = system: Spodoptera littoralis (Egyptian Cotton Leafworm); test: Activity against Spodoptera littoralis, cotton leaf discs sprayed (Example B1); type: in vivo; conditions: foliar, 72 h, L1 larvae, checked 3 days after treatment
Excerpt: Cotton leaf discs are placed on agar in a 24-well microtiter plate and sprayed with test solutions. After drying, the leaf discs are infested with 5 L1 larvae. The samples are checked for mortality, repellent effect, feeding behaviour, and growth regulation 3 days after treatment (DAT).

[7] = system: Thrips tabaci (Onion Thrips); test: Activity against Thrips tabaci, sunflower leaf discs (Example B7); type: in vivo; conditions: foliar, 144 h, incubation 6 days
Description: Sunflower leaf discs are placed on agar in a 24-well microtiter plate and sprayed with test solutions. After drying, the leaf discs are infested with a thrips population of mixed ages. After an incubation period of 6 days, samples are checked for mortality and special effects (e.g. phytotoxicity).

[8] = system: Myzus persicae (Green Peach Aphid); test: Activity against Myzus persicae, contact, sunflower leaf discs (Example B5); type: in vivo; conditions: foliar, 144 h, 6 DAT
Description: Sunflower leaf discs are placed on agar in a 24-well microtiter plate and sprayed with test solutions. After drying, the leaf discs are infested with an aphid population of mixed ages. After an incubation period of 6 DAT, samples are checked for mortality and special effects (e.g. phytotoxicity).

Row | SMILES | melting point | pest or weed control at 400 ppm [1] | pest or weed control at 400 ppm [3] | pest or weed control at 400 ppm [4] | pest or weed control at 400 ppm [6] | also measured
1 | Cc1cc(C#N)cc(C(=O)NC2(C)CS(=O)(=O)C2)c1NC(=O)c1cc(OCC(F)(F)F)nn1-c1ncccc1Cl | 216 to 219 °C | – | – | – | – | –
2 | Cc1cc(C#N)cc(C(=O)NC2(C)C[S+]([O-])C2)c1NC(=O)c1cc(OCC(F)(F)F)nn1-c1ncccc1Cl (stereo not shown) | 223 to 225 °C | – | – | – | – | –
3 | Cc1cc(Cl)cc(C(=O)NC2(C)C[S+]([O-])C2)c1NC(=O)c1cc(OCC(F)(F)F)nn1-c1ncccc1Cl (stereo not shown) | 220 to 222 °C | – | – | – | – | –
4 | Cc1cc(C#N)cc(C(=O)NC2(C)C[S+]([O-])C2)c1NC(=O)c1cc(Br)nn1-c1ncccc1Cl (stereo not shown) | 244 to 249 °C | – | – | – | – | –
5 | Cc1cc(Cl)cc(C(=O)NC2CS(=O)(=O)C2)c1NC(=O)c1cc(C(F)(F)F)nn1-c1ncccc1Cl [T13.1.1] | – | > 80% | > 80% | > 80% | > 80% | pest or weed control at 400 ppm [2]: > 80%; pest or weed control at 12.5 ppm [5]: > 80%; pest or weed control at 400 ppm [7]: > 80%
6 | Cc1cc(Cl)cc(C(=O)NC2CS(=O)(=O)C2)c1NC(=O)c1cc(Br)nn1-c1ncccc1Cl [T13.1.6] | – | > 80% | > 80% | > 80% | > 80% | pest or weed control at 400 ppm [2]: > 80%; pest or weed control at 12.5 ppm [5]: > 80%; pest or weed control at 400 ppm [7]: > 80%
7 | CCC1(NC(=O)c2cc(Cl)cc(C)c2NC(=O)c2cc(Br)nn2-c2ncccc2Cl)CS(=O)(=O)C1 [T13.1.8] | – | > 80% | > 80% | > 80% | > 80% | pest or weed control at 12.5 ppm [5]: > 80%
8 | CCC1(NC(=O)c2cc(Cl)cc(C)c2NC(=O)c2cc(OCC(F)(F)F)nn2-c2ncccc2Cl)CS(=O)(=O)C1 [T13.1.23] | – | > 80% | > 80% | > 80% | > 80% | pest or weed control at 12.5 ppm [5]: > 80%
9 | Cc1cc(C#N)cc(C(=O)NC2CS(=O)(=O)C2)c1NC(=O)c1cc(C(F)(F)F)nn1-c1ncccc1Cl [T13.1.91] | – | > 80% | > 80% | > 80% | > 80% | pest or weed control at 400 ppm [8]: > 80%; pest or weed control at 12.5 ppm [5]: > 80%; pest or weed control at 400 ppm [7]: > 80%
10 | CCC1(NC(=O)c2cc(C#N)cc(C)c2NC(=O)c2cc(C(F)(F)F)nn2-c2ncccc2Cl)CS(=O)(=O)C1 [T13.1.93] | – | > 80% | – | > 80% | > 80% | pest or weed control at 400 ppm [2]: > 80%; pest or weed control at 400 ppm [7]: > 80%
11 | Cc1cc(C#N)cc(C(=O)NC2CS(=O)(=O)C2)c1NC(=O)c1cc(OCC(F)(F)F)nn1-c1ncccc1Cl [T13.1.111] | – | > 80% | > 80% | > 80% | > 80% | pest or weed control at 400 ppm [7]: > 80%
12 | CCC1(NC(=O)c2cc(C#N)cc(C)c2NC(=O)c2cc(OCC(F)(F)F)nn2-c2ncccc2Cl)CS(=O)(=O)C1 [T13.1.113] | – | > 80% | > 80% | > 80% | > 80% | pest or weed control at 400 ppm [2]: > 80%; pest or weed control at 12.5 ppm [5]: > 80%; pest or weed control at 400 ppm [7]: > 80%
13 | Cc1cccc(C(=O)NC2CS(=O)(=O)C2)c1NC(=O)c1cc(C(F)(F)F)nn1-c1ncccc1Cl [T13.1.361] | – | > 80% | – | > 80% | > 80% | pest or weed control at 12.5 ppm [5]: > 80%
14 | Cc1cc(Cl)cc(C(=O)NC2CS(=O)(=O)C2(C)C)c1NC(=O)c1cc(C(F)(F)F)nn1-c1ncccc1Cl (stereo not shown) [T15.1.1] | – | > 80% | > 80% | > 80% | > 80% | pest or weed control at 12.5 ppm [5]: > 80%
15 | Cc1cc(C#N)cc(C(=O)NC2CS(=O)(=O)C2(C)C)c1NC(=O)c1cc(C(F)(F)F)nn1-c1ncccc1Cl (stereo not shown) [T15.1.91] | – | > 80% | > 80% | > 80% | > 80% | pest or weed control at 400 ppm [8]: > 80%; pest or weed control at 400 ppm [7]: > 80%
16 | Cc1cc(Cl)cc(C(=O)NC2C(C)(C)S(=O)(=O)C2(C)C)c1NC(=O)c1cc(C(F)(F)F)nn1-c1ncccc1Cl [T16.1.1] | – | > 80% | – | > 80% | > 80% | –
17 | Cc1cc(C#N)cc(C(=O)NC2C(C)(C)S(=O)(=O)C2(C)C)c1NC(=O)c1cc(C(F)(F)F)nn1-c1ncccc1Cl [T16.1.91] | – | > 80% | > 80% | > 80% | > 80% | pest or weed control at 400 ppm [7]: > 80%
18 | Cc1cc(Cl)cc(C(=O)NC2(C)CN(Cc3ccccc3)C2)c1NC(=O)c1cc(C(F)(F)F)nn1-c1ncccc1Cl [T44.1.2, 2-(3-chloro-pyridin-2-yl)-5-trifluoromethyl-2H-pyrazole-3-carboxylic acid [4-chloro-2-methyl-6-(3-methyl-N-benzylazetidine-3-ylcarbamoyl)-phenyl]-amide] | – | > 80% | > 80% | > 80% | > 80% | pest or weed control at 12.5 ppm [5]: > 80%; pest or weed control at 400 ppm [7]: > 80%

Further lines, with some results ahead:

Row | melting point | SMILES | pest or weed control at 400 ppm [1] | pest or weed control at 400 ppm [3] | pest or weed control at 400 ppm [4] | pest or weed control at 400 ppm [6] | also measured
19 | > 250 °C | Cc1cc(Cl)cc(C(=O)NC2(C)CS(=O)(=O)C2)c1NC(=O)c1cc(OCC(F)(F)F)nn1-c1ncccc1Cl | – | – | – | – | –
20 | 234 to 236 °C | CCC1(NC(=O)c2cc(Cl)cc(C)c2NC(=O)c2cc(C(F)(F)F)nn2-c2ncccc2Cl)CS(=O)(=O)C1 | – | – | – | – | –
21 | 151 to 155 °C | Cc1cc(Cl)cc(C(=O)NC2CS(=O)(=O)C2)c1NC(=O)c1cc(C(F)F)nn1-c1ncccc1Cl | – | – | – | – | –
22 | 170 to 173 °C | Cc1cc(Cl)cc(C(=O)NC2(C)CS(=O)(=O)C2)c1NC(=O)c1cc(C(F)F)nn1-c1ncccc1Cl | – | – | – | – | –
23 | 158 to 160 °C | Cc1cc(C#N)cc(C(=O)NC2CS(=O)(=O)C2)c1NC(=O)c1cc(C(F)F)nn1-c1ncccc1Cl | – | – | – | – | –
24 | 238 to 241 °C | Cc1cc(C#N)cc(C(=O)NC2(C)CS(=O)(=O)C2)c1NC(=O)c1cc(C(F)F)nn1-c1ncccc1Cl | – | – | – | – | –
25 | 191 to 193 °C | Cc1cc(Cl)cc(C(=O)NC2(C)CS(=O)(=O)C2)c1NC(=O)c1cc(Br)nn1-c1ncccc1Cl | – | – | – | – | –
26 | 171 to 173 °C | Cc1cc(Cl)cc(C(=O)NC2C[S+]([O-])C2)c1NC(=O)c1cc(C(F)F)nn1-c1ncccc1Cl (stereo not shown) | – | – | – | – | –
27 | 169 to 173 °C | Cc1cc(Cl)cc(C(=O)NC2(C)C[S+]([O-])C2)c1NC(=O)c1cc(C(F)F)nn1-c1ncccc1Cl (stereo not shown) | – | – | – | – | –
28 | 230 to 233 °C | Cc1cc(C#N)cc(C(=O)NC2C[S+]([O-])C2)c1NC(=O)c1cc(C(F)F)nn1-c1ncccc1Cl (stereo not shown) | – | – | – | – | –
29 | 235 to 237 °C | Cc1cc(C#N)cc(C(=O)NC2(C)C[S+]([O-])C2)c1NC(=O)c1cc(C(F)F)nn1-c1ncccc1Cl (stereo not shown) | – | – | – | – | –
30 | 244 to 247 °C | Cc1cc(Cl)cc(C(=O)NC2(C)C[S+]([O-])C2)c1NC(=O)c1cc(Br)nn1-c1ncccc1Cl (stereo not shown) | – | – | – | – | –
31 | 241 to 244 °C | Cc1cc(Cl)cc(C(=O)NC2C[S+]([O-])C2)c1NC(=O)c1cc(C(F)(F)F)nn1-c1ncccc1Cl (single isomer, unassigned) | – | – | – | – | –
